Measurements reported in ChEMBL document CHEMBL4680063, “G-Protein biased opioid agonists: 3-hydroxy-N-phenethyl-5-phenylmorphans with three-carbon chain substituents at C9” (RSC Med Chem, 2020).

Tests used:
[1] = target: Kappa-type opioid receptor (Homo sapiens, UniProt P41145); assay: Agonist activity at human KOR expressed in CHOK1 cells assessed as inhibition of forskolin-stimulated cAMP accumulation incubated for 30 mins by luminescence assay; format: functional, cell-based, CHO-K1
Mu-type opioid receptor [2] = target: T1, Mu-type opioid receptor (Homo sapiens, UniProt P35372); assay: Agonist activity at human MOR expressed in CHOK1 cells assessed as inhibition of forskolin-stimulated cAMP accumulation incubated for 30 mins by luminescence assay; format: functional, cell-based, CHO-K1
Mu-type opioid receptor [3] = target: T1, Mu-type opioid receptor; assay: Activity at human MOR expressed in CHOK1 cells co-expressing beta-arrestin2 EFC assessed as beta-arrestin2 EFC recruitment measured after 90 mins by PathHunter assay; format: ADME, cell-based, CHO-K1
[4] = target: Delta-type opioid receptor (Homo sapiens, UniProt P41143); assay: Agonist activity at human DOR expressed in CHOK1 cells assessed as inhibition of forskolin-stimulated cAMP accumulation incubated for 30 mins by luminescence assay; format: functional, cell-based, CHO-K1
Mu-type opioid receptor [5] = target: T1, Mu-type opioid receptor; assay: Activity at human MOR expressed in U2OS cells co-expressing beta-arrestin2 EFC assessed as beta-arrestin2 EFC recruitment by Tango assay; format: ADME, cell-based
Mu-type opioid receptor [6] = target: T1, Mu-type opioid receptor; assay: Agonist activity at human MOR expressed in CHOK1 cells assessed as induction of beta-arrestin recruitment measured after 90 mins by PathHunter assay relative to control; format: cell-based; details: CHO-K1

Sequence of Delta-type opioid receptor (P41143 whole entry): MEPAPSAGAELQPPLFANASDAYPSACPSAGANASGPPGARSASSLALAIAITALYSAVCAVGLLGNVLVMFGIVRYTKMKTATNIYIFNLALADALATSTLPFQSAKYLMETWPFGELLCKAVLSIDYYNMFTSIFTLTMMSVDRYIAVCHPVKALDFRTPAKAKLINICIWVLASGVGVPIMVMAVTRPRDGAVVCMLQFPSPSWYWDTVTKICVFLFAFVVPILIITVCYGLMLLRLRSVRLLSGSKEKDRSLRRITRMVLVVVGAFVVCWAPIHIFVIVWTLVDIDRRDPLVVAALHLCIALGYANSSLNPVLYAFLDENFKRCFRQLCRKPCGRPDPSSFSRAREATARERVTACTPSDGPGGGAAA
T1 sequence (P35372 whole entry): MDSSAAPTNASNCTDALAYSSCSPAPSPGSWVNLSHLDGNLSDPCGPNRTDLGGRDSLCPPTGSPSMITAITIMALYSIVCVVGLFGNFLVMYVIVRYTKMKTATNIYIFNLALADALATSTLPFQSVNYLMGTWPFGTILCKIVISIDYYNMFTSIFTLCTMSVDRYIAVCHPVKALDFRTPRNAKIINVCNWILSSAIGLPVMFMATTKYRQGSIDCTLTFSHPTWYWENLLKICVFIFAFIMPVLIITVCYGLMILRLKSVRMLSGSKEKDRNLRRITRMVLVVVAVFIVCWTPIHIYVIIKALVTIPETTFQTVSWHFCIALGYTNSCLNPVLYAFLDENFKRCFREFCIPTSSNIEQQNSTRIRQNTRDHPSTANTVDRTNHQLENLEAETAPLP
Sequence of Kappa-type opioid receptor (P41145 whole entry): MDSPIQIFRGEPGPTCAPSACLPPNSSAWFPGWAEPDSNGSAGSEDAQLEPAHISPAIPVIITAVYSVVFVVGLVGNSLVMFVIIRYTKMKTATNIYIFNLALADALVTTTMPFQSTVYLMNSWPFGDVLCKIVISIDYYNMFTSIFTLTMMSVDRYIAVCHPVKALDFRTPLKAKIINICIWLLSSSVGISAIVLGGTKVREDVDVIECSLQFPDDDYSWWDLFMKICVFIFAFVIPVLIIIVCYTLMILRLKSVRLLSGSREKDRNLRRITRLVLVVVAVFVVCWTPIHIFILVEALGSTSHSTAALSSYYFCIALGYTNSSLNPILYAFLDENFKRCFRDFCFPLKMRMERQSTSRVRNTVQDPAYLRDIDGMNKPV

| Compound | EC50 [1] [nM] | EC50 (Mu-type opioid receptor [2]) [nM] | EC50 (Mu-type opioid receptor [3]) [nM] | EC50 [4] [nM] | EC50 (Mu-type opioid receptor [5]) [nM] | Emax (Mu-type opioid receptor [6]) [%] |
| --- | --- | --- | --- | --- | --- | --- |
| O=C(O)CC[C@H]1[C@@H]2CCC[C@@]1(c1cccc(O)c1)CCN2CCc1ccccc1 | > 10000 | 31.7 | > 25000 | > 10000 | > 25000 |  |
| COC(=O)CC[C@H]1[C@@H]2CCC[C@@]1(c1cccc(O)c1)CCN2CCc1ccccc1 |  | 0.46 | 1.72 | > 10000 | 12.5 |  |
| CCOC(=O)CC[C@H]1[C@@H]2CCC[C@@]1(c1cccc(O)c1)CCN2CCc1ccccc1 | 35.3 | 0.24 | 11.6 | 49.1 | > 25000 |  |
| Oc1cccc([C@@]23CCC[C@H]([C@H]2O)N(CCc2ccccc2)CC3)c1 | 323 | 0.017 | 6.08 | 2.6 |  |  |
| COC(=O)/C=C/[C@H]1[C@@H]2CCC[C@@]1(c1cccc(O)c1)CCN2CCc1ccccc1 | > 10000 | 132 | > 25000 | 143 |  |  |
| C[C@@H](Cc1ccsc1)NC(=O)NC[C@H](Cc1ccc(O)cc1)N(C)C |  |  |  |  |  | 4.3 |
| COC(=O)CC[C@@H]1[C@H]2CCC[C@]1(c1cccc(O)c1)CCN2CCc1ccccc1 | > 10000 | 31.3 | > 25000 | > 10000 | > 25000 |  |
| OCCC[C@@H]1[C@H]2CCC[C@]1(c1cccc(O)c1)CCN2CCc1ccccc1 | > 10000 |  | > 25000 | > 10000 | > 25000 |  |
| CCC[C@H]1[C@@H]2CCC[C@@]1(c1cccc(O)c1)CCN2CCc1ccccc1 | > 10000 |  | > 25000 | > 10000 | > 25000 |  |
| OCCC[C@H]1[C@@H]2CCC[C@@]1(c1cccc(O)c1)CCN2CCc1ccccc1 | > 10000 |  | > 25000 | 80.9 | > 25000 |  |
| COC(=O)CC[C@@H]1[C@@H]2CCC[C@@]1(c1cccc(O)c1)CCN2CCc1ccccc1 | 323 | 854 | > 25000 | > 10000 |  |  |
| OC/C=C/[C@H]1[C@@H]2CCC[C@@]1(c1cccc(O)c1)CCN2CCc1ccccc1 | > 10000 |  | > 25000 | > 10000 | > 25000 |  |
